Where only a bound is given, the exact number is not on record here.

Results on 3 molecules are retold here after US20170266292A1, “LIPIDIC COMPOUND-TELODENDRIMER HYBRID NANOPARTICLES AND METHODS OF MAKING AND USES THEREOF” (The Research Foundation for The State University of New York, priority 2016, published 2017).

The subject of data set [1] is orthotopic human U87 GBM tumors. Kind of data set: Intracranial distribution of proteins after CED. It counts as in vivo, mouse. The settings on record: one day after CED; protein/NP 1/10; confocal microscopy. Here is the method:
Intracranial Orthotopic GBM Tumor Model. Female athymic nude mice (NCRNU-Sp/Sp), 6-7 weeks age, were purchased from Taconic Biosciences (Germantown, N.Y.). All animals were kept under pathogen-free conditions according to Association for Assessment and Accreditation of Laboratory Animal Care (AAALAC) guidelines and were allowed to acclimatize for at least 4 days prior to any experiments. All animal experiments were performed in compliance with institutional guidelines and according to protocol approved by the Committee for the Humane Use of Animals of State University of New York Upstate Medical University. Athymic nude mice were anesthetized with ketamine/xylazine (80 mg/kg: 5 mg/kg) through an intraperitoneal injection. The mice were then placed in a stereotactic head frame. Using aseptic technique, a midline skin incision was made a 0.5 mm anterior to bregma and 2.5 mm lateral of midline, a burr hole will be placed. A 25G needle delivered U87 (GBM) tumor cells 3.2 mm deep via the stereotactic head frame. Approximately 5×10^4 cells (in 1 μL of PBS) will be injected. This injection will occur over the course of 5 minutes. […]
CED Administration of Protein Formulations. […] For bioluminescence image analysis, the associated bioluminescence intensities were determined by Living Image software (Caliper Life Sciences) using operator-defined regions of interest (ROI) measurements.

Data set [2] in a line: DLS hydrodynamic diameter of lipidoid-telodendrimer hybrid NPs. It counts as physicochemical. The settings on record: lipidoid alone. Here is the method:
(§1) Formulation of Lipidoid-Telodendrimer Nanoparticles. Nanoparticles were formed by mixing lipidoids and/or telodendrimers at required mass ratios in a solution of 90% ethanol and 10% 10 mM sodium citrate (by volume). Particle solutions were diluted with 10 times volume of phosphate buffered saline (PBS, 1×), and dialyzed against PBS (1×) for 4 h. The particle solution was then mixed with proteins at a ratio of 1/10 (protein/nanoparticle, w/w) to form nanoparticle-protein complex. The complex solution was then stored in sealed vessels at 4° C. for 1 day before use. For Mcl-1 inhibitor-loaded nanoparticle preparation, the Mcl-1 inhibitor, lipidoids and telodendrimers were in a solution of 90% ethanol and 10% 10 mM sodium citrate (by volume). Particle solutions were diluted with 10 times volume of PBS, yielding Mcl-1 inhibitor-loaded lipidoid-telodendrimer nanoparticles.
(§2) Characterization. Proton NMR spectrum was recorded on a Bruker AVANCE 600 MHz spectrometer. MALDI-TOF mass spectrum was recorded on a Bruker REFLEX-III instrument. Dynamic light scattering (DLS) studies were performed using a Zetatrac (Microtrac Inc.) instrument, and the area-based mean particle sizes were presented. Zeta potential measurements were carried out on a Malvern Nano-ZS zetasizer at room temperature. […] UV-vis spectra were recorded on a Thermo Scientific Nanodrop 2000c spectrophotometer.

The nature of data set [3]: Zeta potential of lipidoid-telodendrimer hybrid NPs. It counts as physicochemical. The following applies: lipidoid alone. As to the method: as §1, §2
Data set [4] has as its system U87 cells. In words: MTS cell viability assay on U87 cells. It counts as cell-based, human. The settings on record: 72 h continuous incubation. Here is the method:
Cell Culture and MTS Assays. The human glioblastoma multiforme (GBM) cell lines U87 and LN229, as well as the colon cancer cell line HT-29 cell line were purchased from American Type Culture Collection (ATCC, Manassas, Va., U.S.A.). U138 cell line established from human patients diagnosed with GBM. All cells were cultured in McCoy's 5 A medium supplemented with 10% fetal bovine serum (FBS), 100 U/mL penicillin G, and […] streptomycin at 37° C. using a humidified 5% CO2 incubator. Various formulations of proteins with different dilutions were added to the plate and then incubated in a humidified 37° C., 5% CO2 incubator. After a 72 h continuous incubation, a mixture solution composed of CellTiter 96 AQueous MTS, and an electron coupling reagent, PMS, was added to each well according to the manufacturer's instructions. The cell viability was determined by measuring absorbance at 490 nm using a microplate reader (BioTek Synergy 2). Untreated cells served as the control. Results were shown as the average cell viability [100%×(ODtreat−ODblank)/(ODcontrol−ODblank)] of triplicate wells. The cells were also treated with blank nanoparticles in PBS (1×) and blank lipidoids in a mixture of cremophor/ethanol (v:v=1:1) with different dilutions and incubated for a total of 72 h to evaluate nanoparticle-related toxicity.
A general note: Tetrazolium assays rely on reduction of a dye to a coloured formazan, in cell work by metabolically active cells.

Data set [5] in a line: Protein release from agarose gels (0.6% wt). It counts as physicochemical. The following applies: FITC-BSA from agarose gels (0.6% wt) immersed in PBS. Here is the method: Protein Release from Agarose Gels. Free FITC-BSA and FITC-BSA-incorporated lipidoid-telodendrimer hybrid nanoparticles (1/10, FITC-BSA/nanoparticle, w/w) were loaded in agarose gels of a concentration of 0.6% wt. The sample-loaded agarose gels were immersed in PBS (1×) with shaking for protein release assays. The concentration of released FITC-BSA at various time points was measured by fluorescence spectroscopy employing a pre-established calibration equation. The release medium was replaced with fresh medium. The accumulated protein release was reported as the means for each triplicate sample.

Data set [6] concerns U87 cells. Kind of data set: Cellular uptake of protein-incorporated nanoparticles, U87 cells. It counts as cell-based, human. The following applies: 2 h at 37° C. As to the method: (§3) Cellular Uptake of Protein-Incorporated Nanoparticles. The cellular uptake and intracellular trafficking of the protein-incorporated nanoparticles were determined by fluorescence microscopy. FITC-BSA was used as a model protein. HT-29 and U87 cells were seeded in chamber slide with a density of 5×10^4 cells per well in 350 μL of McCoy's 5 A and cultured for 24 h. The original medium was replaced with free FITC-BSA and FITC-BSA-loaded nanoparticles at final FITC a concentration of 1 or 3 μg/mL at 37° C. After a 2 h incubation, the cells were washed three times with cold PBS (1×) and fixed with 4% formaldehyde for 10 min at room temperature, and the cell nuclei were stained with DAPI. The slides were mounted with cover slips and cells were imaged with a Leica fluorescence microscope or a Nikon FV1000 laser scanning confocal scanning microscope. The mean fluorescence density in cells (unit: pixel^−1) was calculated using the following equation: […]

Data set [7] has as its system HT-29 cells. Kind of data set: Cellular uptake of protein-incorporated nanoparticles, HT-29 cells. It counts as cell-based, human. The following applies: 2 h at 37° C., FITC approx. 1 μg/mL. Here is the method:
as §3

As for “free Cy5-BSA: near-infrared fluorescence dye-labeled BSA (Cy5-BSA), model protein”, the “distribution in brain sections containing U87 tumors (fluorescence)” value in data set [1] is on record as “no obvious fluorescent signals”.

Regarding `CCCCCCCCCCCCCCC(O)CN(C)CCCN(C)CC(O)CCCCCCCCCCCCCC` (centres unmarked) [lipidoid, 1,1′-(propane-1,3-diylbis(methylazanediyl))bis(hexadecan-2-ol)], in data set [2], the “particle size of lipidoid NPs” value was about 129 nm. Further, the “ζ-potential of lipidoid NPs” value in data set [3] was “+8 mV”. Further, the “cytotoxicity of blank nanoparticles / lipidoid” value in data set [4] is reported as “toxicity was observed”.

Take “free FITC-BSA: fluorescein isothiocyanate (FITC) labeled BSA, model protein”: the “time within which ~50% of the proteins released” value in data set [5] is at most 2 h. The “cellular uptake efficiency (semi-quantitative, mean fluorescence intensity)” value in data set [6] (FITC approx. 1 μg/mL) and in data set [7] was “closes to zero” throughout. Also, the “cellular uptake (confocal laser fluorescence microscopy)” value in data set [6] (FITC approx. 3 μg/mL) is “very low”.
